The values below come from patent publication US20240207422A1, “NERVE TARGETING PEPTIDE CONJUGATES AND METHODS OF USE” (Alume Biosciences, Inc., priority 2022, published 2024).

The test system of one assay is excised human nerve tissue. The assay is described as follows: Phage display selection on excised human nerve tissue (Nerve2, Nerve3), NextGen sequence counts. The class given is binding. Particulars: unique sequence count (relative enrichment); Nerve3 only. The method, boiled down: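 Randomized parent-peptide m13 phage libraries (about 50% mutation per residue) selected on washed excised human nerve tissue over multiple rounds, washing nerve pellet with PBS. NextGen sequencing of pools after rounds 2, 3 and 4; translated peptides counted by frequency, with counts 6 or greater retained.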
For 441 (QFALKGLNGDFQKS) [compound 441], the Count is 83.

With 442 (QFPSAETYRIVKKF) [compound 442], the Count amounted to 83.

In turn, 443 (QLTWELGYHAFVKP) [compound 443] had a Count of 83.

Consider 444 (QLLRNLSYDGAKYS) [compound 444], for which the Count was 82.

Turning to 445 (QLRVKLQYDVIANN) [compound 445], the Count is reported as 81.

446 (QVPAREPNHIVKKS) [compound 446] had a Count of 80.

In turn, 447 (SAREQGTFYFVNNS) [compound 447] registered a Count of 80.

448 (LFPKYAPHESVKMS) [compound 448] had a Count of 78.

Substance 449 (QVPGNELYFVLKQY) [compound 449] returned a Count of 77.

Another assay concerns human nerve extract. Briefly: Phage display selection on plates coated with human nerve extract (Plated Nerve2), NextGen sequence counts. The format is binding. As to conditions: unique sequence count (relative enrichment); Plated Nerve2 only. On the procedure:
Several m13 phage libraries were constructed expressing randomized variants of a parent peptide (QVPWEEPYYVVKKS-SGGL; SEQ ID NO: 576). In particular, the first 14 amino acids of the parent peptide were randomized using degenerate oligonucleotide synthesis to obtain a diverse set of peptides with a mutation rate of about 50% per residue.
To accomplish this, synthesis was carried out by the XXK codon design approach, where X is any base and K is G or T. To bias synthesis towards the parent sequence, synthesis was carried out at each X position with a mixture of about 70%-85% of the parent nucleotide and 15-30% of the remaining 3 nucleotides. The resulting molecules were inserted into fADL-1e (Antibody Design Laboratories), which is a type 3 phage display vector having a cloning site on the N-terminal side of the full-length gene III protein. The fusion proteins are directed to the periplasm by the PelB leader peptide, which is inserted in the vector […].
Collectively, the phage display libraries used in the screens comprised about 600 million peptides, with sequencing analysis confirming a mutation rate of about 50% per residue.
Phage libraries were independently processed, as follows, with five biological samples: two independent samples of excised human nerve tissue, one sample of a human nerve extract, and two independent samples of human muscle tissue, as follows:
Human Nerve Extracts: Phage libraries were incubated for up to 24 hours at 4° C. in 96 well plates that had been coated with a human nerve extract. Plates were then washed with PBS and phage were eluted using 0.2M glycine pH 2.0. Phage supernatants where then neutralized with Tris pH 9.0 prior to plating on TG1 bacteria and LB agar plates. Colonies were counted to determine titer followed by DNA preparation of pools of phage and NextGen sequencing. After rounds of selection, phage were pooled and amplified for iterative selection. Phage that eluted by 0.2M glycine pH 2.0 (the nerve binders) at each round were sequenced. NextGen sequencing of pools after 2, 3 and 4 rounds of selection were used to isolate candidate sequences that were further analyzed using bioinformatics.
NextGen sequencing of pools after 2, 3 and 4 rounds of selection were used to isolate candidate sequences from each of the five samples. These five data sets were then analyzed as described in the next section.
Peptide and vector sequences were translated starting at the first start codon in the nucleotide sequence. […] Trimmed peptides with identical sequences were combined and quantified according to their frequency (count).
Following processing, an R script was written to merge the unique peptide sequences (with counts 6 or greater) from the 5 different data sets to analyze the overlap between nerve and muscle binding activity.
For the single Nerve2, Nerve3, and Plated Nerve2 (pn2) subsets, the number of counts for each group was set at a threshold giving rise to at least 100 peptides. […] As highlighted in yellow in FIG. 1B, the representative group also included 6 unique peptides overlapping between nerve2 and nerve3, 200 unique peptides overlapping between nerve2 and plated nerve2 (at least 60 counts), 4 unique peptides overlapping between nerve3 and plated nerve2. Finally, as highlighted in green in FIG. 1B, the representative group also included […] common to the nerve2, nerve3, and plated nerve2 sets.
The substance 450 (QFAWSQSYAYSSTT) [compound 450] gave a Count of 107.

Consider 451 (QGQWDKPYDAVQNS) [compound 451], for which the Count is reported as 88.

In the case of 452 (QIPGDAQYRLVKRS) [compound 452], the Count was found to be 80.

Take 453 (QIPWTQPQYDVTPP) [compound 453]: the Count came to 79.

Consider 454 (HVELESSYYFVNNS) [compound 454], for which the Count came to 78.

455 (QFPLAEPYYHLTES) [compound 455] registered a Count of 77.

In the case of 456 (HFDWEEPYYDASKA) [compound 456], the Count amounted to 73.

As to 457 (SYEWEDPYYDLKYS) [compound 457], the Count is recorded as 73.

458 (NVTGAEYYYRMNNY) [compound 458] yielded a Count of 67.

Substance 459 (HVSCEVPCYGALAS) [compound 459] returned a Count of 66.

460 (HDASEGAYYVERNS) [compound 460] registered a Count of 65.

The substance 461 (QFGWEEPYYVLHTV) [compound 461] showed a Count of 65.

On to 462 (HLSREGTYYAVKQP) [compound 462], for which the Count turned out to be 64.

Take 463 (QLPLYDPYYTVRTS) [compound 463]: the Count worked out at 63.

Regarding 464 (ELPYEEPGTFVEKA) [compound 464], the Count turned out to be 62.

For 465 (QFPWEEPYYVFTNS) [compound 465], the Count was 62.

Turning to 466 (QIPGGERSYVLENS) [compound 466], the Count is 62.

As for 467 (QITSDKPYYVVKNS) [compound 467], the Count is reported as 60.

In turn, 468 (YDPSGEPYYRVNNH) [compound 468] registered a Count of 59.

Consider 469 (QVPRPASSYIGKTS) [compound 469], for which the Count amounted to 58.

For the substance 470 (QIPLEGPTYVTNPS) [compound 470], the Count came out at 57.

As to 471 (AIPSGAPYYKVNKY) [compound 471], the Count is on record as 56.

472 (EFRSEQPYYFVNKY) [compound 472] had a Count of 55.

473 (QIRWDETYYDIQKT) [compound 473] had a Count of 55.

474 (QLALEQQSYDAKMS) [compound 474] came in with a Count of 55.

Substance 475 (ALPWEHPWCVSKNC) [compound 475] came in with a Count of 54.

Consider 476 (HVPVLEPYDLVKKS) [compound 476], for which the Count came out at 54.

In turn, 477 (QIRSTEPYYVFKKT) [compound 477] displayed a Count of 54.

For the substance 478 (QSPGTNPQNVLIKS) [compound 478], the Count came to 54.

479 (QITSVDPSSLAYRS) [compound 479] had a Count of 53.

In turn, 480 (QMPSGAPYDATLNS) [compound 480] gave a Count of 53.

In turn, 481 (QNPWDEPSYVVKNV) [compound 481] displayed a Count of 53.

482 (QSPFDETAYGLTHS) [compound 482] came in with a Count of 53.

Regarding 483 (QVLFAKSYYSVKDS) [compound 483], the Count is on record as 53.

As for 484 (RFPADEEHYVGKLS) [compound 484], the Count is listed as 53.

The substance 485 (YVPYEEQKYVVTKS) [compound 485] gave a Count of 53.

Substance 486 (HSQGQTTEYVGKQS) [compound 486] displayed a Count of 52.

On to 487 (DFQSEETRNLAKMP) [compound 487], for which the Count was determined as 51.

Consider 488 (DVPWPAPYYAVSKY) [compound 488], for which the Count stood at 51.

Turning to 489 (QFPGEESHYVVRNS) [compound 489], the Count is listed as 51.

Substance 490 (QFQWETPSHVINDS) [compound 490] yielded a Count of 51.

491 (QTPRQTLYYSVKAY) [compound 491]: the Count came out at 51.

Substance 492 (HVAYQEPFVYQKTS) [compound 492] yielded a Count of 50.

With 493 (QISRGDTYYVMNKS) [compound 493], the Count is reported as 50.

In turn, 494 (HIPGEEPSDGVRSY) [compound 494] had a Count of 49.

In turn, 495 (HLSVAEPYYAVRNS) [compound 495] registered a Count of 49.

Consider 496 (QLQWQKSNWVGKIT) [compound 496], for which the Count turned out to be 49.

With 497 (EIPWEGTYRLVKHS) [compound 497], the Count was 48.

Substance 498 (HVPQKEPYYVVKTF) [compound 498] displayed a Count of 48.

499 (QFPLFTTFYNVEES) [compound 499] gave a Count of 47.

Consider 500 (QFPWETSYYIVKNS) [compound 500], for which the Count came out at 47.

As to 501 (QLAGGDPYVLPKLS) [compound 501], the Count is 47.

Turning to 502 (DVASGEQSYIVVKY) [compound 502], the Count is on record as 46.

On to 503 (HVWLEDTISAEKKS) [compound 503], for which the Count stood at 46.

Substance 504 (QVQWDGASSIVQKT) [compound 504] had a Count of 46.

The substance 505 (HFRGPEPYKFVENP) [compound 505] returned a Count of 45.

As to 506 (HVPWEGPEYIVTQS) [compound 506], the Count turned out to be 45.

507 (QFPRHDPNEVVHKS) [compound 507]: the Count is listed as 45.

The substance 508 (QIPSEEPNYILKSS) [compound 508] gave a Count of 45.

509 (QRPGDEPSYFVKNS) [compound 509]: the Count worked out at 45.

Take 510 (ELTMEQPSYVGNVS) [compound 510]: the Count came out at 44.

On to 511 (QLPWHEAFFGVNNG) [compound 511], for which the Count came out at 44.

Regarding 512 (QVLEKEPSSNVHKS) [compound 512], the Count stood at 44.

Substance 513 (HVPSYAPNYEIKES) [compound 513] had a Count of 43.

For 514 (QHLGEEPSYSGEYA) [compound 514], the Count was determined as 43.

Turning to 515 (SISSKDPYALVKYS) [compound 515], the Count is 43.

Regarding 516 (QFPWDEPNYVVKNF) [compound 516], the Count is 42.

Turning to 517 (QLPFNEPYYSQQVS) [compound 517], the Count came out at 42.

With 518 (HLSMEAPYYGVKEY) [compound 518], the Count amounted to 41.

The substance 519 (HVLGEQPYSVVKTS) [compound 519] had a Count of 41.

Consider 520 (HVSWEEPRYIVKDS) [compound 520], for which the Count was 41.
